According to patent publication US10426815B2, “Prevention and treatment of itch with an MRGPR antagonist” (THE GENERAL HOSPITAL CORPORATION, priority 2015, dated 2019):
Ends that are not written are not given here.

Assays:
MrgA3 (mouse MrgprA3) = biological target: T1, MrgA3 (mouse MrgprA3) (Mus musculus, UniProt Q91WW3); assay: Calcium imaging of cells transfected with the GPCR (Table 1); format: cell-based; conditions: chloroquine 100 μM (FIG. 7c)
T1 construct: expressed in transfected cells; host or cells: HeLa cells, pcDNA3.1(-)
T1 sequence (Q91WW3 1-302): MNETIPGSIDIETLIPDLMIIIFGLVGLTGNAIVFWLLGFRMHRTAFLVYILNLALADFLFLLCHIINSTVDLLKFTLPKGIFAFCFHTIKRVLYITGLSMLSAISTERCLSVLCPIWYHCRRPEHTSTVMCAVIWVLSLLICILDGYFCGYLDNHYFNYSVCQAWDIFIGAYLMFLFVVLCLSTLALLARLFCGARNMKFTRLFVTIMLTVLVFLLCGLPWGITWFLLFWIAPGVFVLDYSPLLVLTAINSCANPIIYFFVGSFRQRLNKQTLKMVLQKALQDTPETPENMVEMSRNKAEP
Procedure: (§1) Human NK1 cDNA was obtained from LIFE Technologies, PCR cloned with Xho I-Hind III ends and cloned into pcDNA3.1(−). Mouse NK2 and NK3 expression-ready vectors were obtained from […] (Piscataway, N.J.). All other Mrgprs (human MRGPRX1, human MRGPRX2, human MRGPRX3, human MRGPRX4, mouse MrgprA2a, mouse MrgprA2b, mouse MrgprA3, mouse MrgprA4, mouse MrgprA9, mouse MrgprA10, mouse MrgprB4 and mouse MrgprB5) were cloned by PCR from genomic DNAs and inserted into pcDNA3.1 (−).
(§2) 10 μg of expression vector (human MRGPRX2, mouse MrgprA1 or NK1) and 10 μl of LIPOFECTAMINE 2000 transfection reagent were diluted into 0.5 ml of DMEM and separately left at room temperature (RT) for 5 min. They were then mixed and incubated at RT for 20 minutes prior to being added to HeLa cells. HeLa cells were grown to confluence, trypsinized and 1×10^6 cells were pelleted in a 15 ml tube by centrifugation at 1000 rpm for 5 minutes. The DMEM-LIPOFECTAMINE 2000-DNA mixture (1 ml) was then added to the cell pellet, suspended and incubated at RT for 5 minutes. 2 ml of complete DMEM with 10% FBS without antibiotics were added to the tube, mixed by inverting the tube, plated into a 96-well glass bottom plate at 50,000 cells/well, and placed in a 37° C. CO2 incubator for 3 hours. HeLa cells transfected with salmon sperm DNA were plated as a control. The medium was changed after 3 hours and left in the incubator. 24 hours after transfection, the medium in the wells was removed and 100 μl of complete DMEM containing 2 μM of FURA-2 were added to each well and left at room temperature in the dark for 1 hr.
(§3) Calcium imaging was performed immediately after loading cells with Fura-2, using a ZEISS Axiovert 200M microscope platform equipped with a flipping filter wheel for ratiometric imaging. Axiovision software, version 4.6 was used for calcium image analysis of the cells excited at 340 nm and 380 nm. Agonists were added at 15 seconds after the start of the excitation procedure. Antagonists were added five minutes before imaging with the agonists. Images were taken every 5 seconds, including at zero time, during a 90 second period or longer if required. The software later analyzed all images taken during each excitation period. Ratiometric changes were measured in 10-20 cells in each individual experiment. An average of the fluorescence of the cells in each image was calculated and plotted against time in seconds.

MrgX1 (human MRGPRX1) = biological target: T2, MrgX1 (human MRGPRX1) (Homo sapiens, UniProt Q96LB2); assay: as above; format: cell-based; conditions: SP 10 μM (FIG. 9); chloroquine 100 μM (FIG. 7c)
T2 construct: expressed in transfected cells; host or cells: HeLa cells, pcDNA3.1(-)
T2 sequence (Q96LB2 whole entry): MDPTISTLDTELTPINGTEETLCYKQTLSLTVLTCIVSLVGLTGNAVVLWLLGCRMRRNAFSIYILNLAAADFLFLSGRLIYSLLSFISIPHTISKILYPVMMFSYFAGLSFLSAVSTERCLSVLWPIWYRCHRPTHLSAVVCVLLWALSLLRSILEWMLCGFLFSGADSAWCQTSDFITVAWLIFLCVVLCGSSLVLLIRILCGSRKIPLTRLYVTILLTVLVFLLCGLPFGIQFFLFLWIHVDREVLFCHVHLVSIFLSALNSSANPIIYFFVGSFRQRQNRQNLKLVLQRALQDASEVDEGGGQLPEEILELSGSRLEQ
Procedure: as §1, §2, §3

[1] = tested on: mice (itch, scratching bouts); assay: Mouse cheek model, scratching bouts; format: in vivo; conditions: intradermal injection into the cheek, 10 μl
Procedure: The mouse cheek model was used to evaluate scratching behavior in Mrgpr cluster Δ−/− and NK1−/− mice. Mice used for behavioral studies were 2 to 3 months old, 20-30 g. Mice were habituated for 30 minutes/day for 3 days prior and for 15 minutes on the day of the study. 10 μl of each compound were delivered by a 31G needle to the cheek. The mice were not shaved prior to injections to avoid irritation. All experiments were performed at consistent times during the day (9:00 am to 2:00 pm) and under the same conditions and in groups of at least 7 mice. The mice were videotaped in a soundproof environment minimize distraction. Recordings were scored for the number of scratching bouts that occur over 1 minute intervals during 25 minute observation periods and the investigator was not aware of the group allocation during scoring the study and behavioral analysis. A scratching bout was initiated by lifting of the hind paw to the area of injection, and ended by returning of the hind paw to the floor or to the mouth. […]
For behavioral studies, average numbers of scratching bouts were compared across groups using one-way ANOVA. Pair-wise comparisons were performed using student t test after correcting p values for multiple comparisons using the Bonferroni procedure. For DRG studies and mast cell degranulation studies, unpaired student t-test was used. Differences were considered to be statistically significant for P<0.05. Data analysis was performed using PRISM 6.

activation of mouse MrgprA3 by the substance (in words) (MrgA3 (mouse MrgprA3))	activation of human MRGPRX1 by the substance (in words) (MrgX1 (human MRGPRX1))	Molecule	provocation of itch (scratching bouts) by the injected substance, WT mice [1]
activates	activates	CCN(CC)CCCC(C)Nc1ccnc2cc(Cl)ccc12 (stereo not shown) [Chloroquine, chloroquine]	–
–	–	LL-37: antimicrobial peptide that activates MRGPRX2	don't cause itch
–	–	PAMP: PAMP peptide of the behavioral studies, length not stated (ARLDVASEFRKKWNKWALSR; ends and bridges not checked; UniProt P35318 22-41, looked up)	don't cause itch
